Data reported in patent publication US20110165094A1, “USE OF VITAMIN E OR DERIVATIVES THEREOF FOR THE CONTROL OF ARTHROPODS” (BIO.LO.GA S.R.L., priority 2008, published 2011).

Tested on: Pediculus capitis
Experiment: Test 3: comparison of Example 1 formulation with 100% cyclomethicone spray, head louse mortality
Format: in vivo
Settings: after 24 hours
Method: A comparison test was also carried out between the formulation of Example 1, a compressed air spray similar to that described in Example 1, but containing 100% of cyclomethicone and a control composed of water.
Head lice were obtained from volunteer children using the same procedures outlined above for test 1.
The lice were distributed in groups of twenty onto squares of open mesh nylon gauze as a support substrate. Each group was placed on 90 millimetre plastic Petri dish.
Each square (4 cm^2) of gauze with the lice attached was then massaged with approx. 5 ml of the formulation to be tested. This was done on the dry gauze so that the formulations could be used neat. The formulations were then left exposed to the air for the specified exposure time.
After the lice had been exposed to the formulation to be tested for a given exposure time, water was added to the gauze, together with approx. 1 ml of shampoo and the gauze was massaged once more to produce a satisfactory foam. The gauze was then rinsed three times with 250 ml of warm tap water (34° C.) poured over and through the gauze squares. The gauze was then blotted dry with medical wipe tissue and incubated under normal maintenance conditions in clean plastic Petri dishes of appropriate dimensions until the results were recorded. […]

## CC(=O)Oc1c(C)c(C)c2c(c1C)CCC(C)(CCC[C@H](C)CCC[C@H](C)CCCC(C)C)O2 (stereo partly drawn) [vitamin E acetate, d,l-alpha-Tocopherol acetate]
  effect on the lice (inferred from Example 1 vs 100% cyclomethicone spray): significant effect
